ChEMBL document CHEMBL5727479, “Fused heteroaryl derivatives as orexin receptor antagonists” (2020)

Target: T1, Orexin receptor type 2 (Homo sapiens, UniProt O43614)
T1 sequence (O43614 whole entry): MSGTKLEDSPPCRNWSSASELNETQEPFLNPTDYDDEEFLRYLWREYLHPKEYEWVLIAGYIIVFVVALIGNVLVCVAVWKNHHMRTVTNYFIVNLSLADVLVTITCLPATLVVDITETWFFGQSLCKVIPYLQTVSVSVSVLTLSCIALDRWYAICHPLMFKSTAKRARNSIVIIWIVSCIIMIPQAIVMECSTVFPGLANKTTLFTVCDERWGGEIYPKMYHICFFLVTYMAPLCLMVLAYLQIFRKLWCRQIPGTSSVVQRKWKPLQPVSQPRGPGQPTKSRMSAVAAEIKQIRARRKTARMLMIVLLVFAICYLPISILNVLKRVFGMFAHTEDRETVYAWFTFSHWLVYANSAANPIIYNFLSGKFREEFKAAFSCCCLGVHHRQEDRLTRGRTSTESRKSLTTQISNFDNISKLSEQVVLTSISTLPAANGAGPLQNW
Test: FLIPR Assay: In a typical experiment the OX1 and OX2 receptor antagonistic activity of the compounds of the present invention was determined in accordance with the following experimental method. For intracellular calcium measurements, Chinese hamster ovary (CHO) cells expressing the rat orexin-1 receptor or the human orexin-2 receptor, are grown in Iscove's modified DMEM containing 2 mM L-glutamine, […], 1% hypoxanthine-thymidine supplement, 100 U/ml penicillin, 100 μg/ml streptomycin and 10% heat-inactivated fetal calf serum (FCS). The cells are seeded at 20,000 cells/well into Becton-Dickinson black 384-well clear bottom sterile plates coated with poly-D-lysine. All reagents are from GIBCO-Invitrogen Corp. The seeded plates are incubated overnight at 37° C. and 5% CO2. Ala-6,12 human orexin-A as the agonist is prepared as a 1 mM stock solution in 1% bovine serum albumin (BSA) and diluted in assay buffer (HBSS containing 20 mM HEPES, 0.1% BSA and 2.5 mM probenecid, pH7.4) for use in the assay at a final concentration of 70 pM. Test compounds are prepared as 10 mM stock solution in DMSO, then diluted in 384-well plates, first in DMSO, then assay buffer. On the day of the assay, cells are washed 3 times with 100 μl assay buffer and then incubated for 60 min (37° C., 5% CO2) in 60 μl assay buffer containing […] Fluo-4AM ester, 0.02% pluronic acid, and 1% BSA.
Type: cell-based

## C[C@@H]1CC[C@@H](Sc2nccn3nccc23)CN1C(=O)c1ccccc1-n1nccn1
  IC50: 15.7 nM
